The assay concerns the target Potassium voltage-gated channel subfamily KQT member 2/3 (Homo sapiens, UniProt O43525+O43526). Nature of the assay: In Vitro Assay. From the text:
This potassium flux assay employs the cell-permeable, potassium-sensitive dye, IPG-2 AM, to quantify potassium ion flux through potassium channels.In general, TREX HEK 293 or HEK 293 cells were stably transfected with either an inducible or non-inducible expression vector containing the full-length cDNA coding for the desired human KV7.2/KV7.3 or in combination with another full-length cDNA for a second desired human KV7 potassium channel. Potassium channel-expressing cell lines were induced with tetracycline (1 g/mL), if required, and plated on 384-well poly-D-lysine (PDL)-coated plates in culture media (DMEM, containing 10% FBS and 1% L-glutamine). After overnight incubation, culture media was removed and cells were loaded with 5 M IPG-2 AM dye for 1 hour in Assay buffer (140 mM NaCl, 20 mM RbCl, 2 mM CaCl2, 1 mM MgCl2, 10 mM HEPES (4-(2-hydroxyethyl)-1-piperazineethanesulfonic acid buffer), 10 mM glucose, adjusted with Tris to pH 7.4). Excess dye was removed, and cells incubated at room temperature for 20 minutes with or without test compound. […]

SMILES strings stand for the structures.

We go through one compound from BindingDB's records for patent US20240101531 (Xenon Pharmaceuticals, 2024).

By EC50 is commonly meant the midpoint of the concentration-response curve.

Sequence of Potassium voltage-gated channel subfamily KQT member 2/3 (O43526 whole entry): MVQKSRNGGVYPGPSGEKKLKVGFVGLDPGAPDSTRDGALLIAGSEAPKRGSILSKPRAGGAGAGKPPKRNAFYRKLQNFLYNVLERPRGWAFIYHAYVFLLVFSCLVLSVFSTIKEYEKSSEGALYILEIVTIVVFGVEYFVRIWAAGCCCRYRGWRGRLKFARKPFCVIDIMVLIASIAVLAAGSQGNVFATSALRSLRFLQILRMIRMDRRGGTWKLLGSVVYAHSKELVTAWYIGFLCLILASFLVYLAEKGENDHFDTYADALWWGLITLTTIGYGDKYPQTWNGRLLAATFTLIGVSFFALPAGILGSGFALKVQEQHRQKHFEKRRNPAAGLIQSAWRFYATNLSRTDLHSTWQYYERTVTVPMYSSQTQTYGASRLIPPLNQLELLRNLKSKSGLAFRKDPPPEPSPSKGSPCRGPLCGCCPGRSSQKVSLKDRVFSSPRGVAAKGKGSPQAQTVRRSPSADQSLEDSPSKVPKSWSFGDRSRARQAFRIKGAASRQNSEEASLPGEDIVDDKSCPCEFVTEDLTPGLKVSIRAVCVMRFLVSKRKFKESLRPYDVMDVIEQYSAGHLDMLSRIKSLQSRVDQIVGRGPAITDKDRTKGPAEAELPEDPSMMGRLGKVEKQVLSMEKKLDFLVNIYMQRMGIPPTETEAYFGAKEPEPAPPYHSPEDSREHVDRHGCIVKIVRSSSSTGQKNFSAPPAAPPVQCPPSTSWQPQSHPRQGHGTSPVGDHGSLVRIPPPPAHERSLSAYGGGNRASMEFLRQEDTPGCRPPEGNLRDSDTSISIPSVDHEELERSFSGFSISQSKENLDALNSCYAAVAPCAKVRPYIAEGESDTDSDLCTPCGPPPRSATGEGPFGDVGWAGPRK
Sequence of Potassium voltage-gated channel subfamily KQT member 2/3 (O43525 whole entry): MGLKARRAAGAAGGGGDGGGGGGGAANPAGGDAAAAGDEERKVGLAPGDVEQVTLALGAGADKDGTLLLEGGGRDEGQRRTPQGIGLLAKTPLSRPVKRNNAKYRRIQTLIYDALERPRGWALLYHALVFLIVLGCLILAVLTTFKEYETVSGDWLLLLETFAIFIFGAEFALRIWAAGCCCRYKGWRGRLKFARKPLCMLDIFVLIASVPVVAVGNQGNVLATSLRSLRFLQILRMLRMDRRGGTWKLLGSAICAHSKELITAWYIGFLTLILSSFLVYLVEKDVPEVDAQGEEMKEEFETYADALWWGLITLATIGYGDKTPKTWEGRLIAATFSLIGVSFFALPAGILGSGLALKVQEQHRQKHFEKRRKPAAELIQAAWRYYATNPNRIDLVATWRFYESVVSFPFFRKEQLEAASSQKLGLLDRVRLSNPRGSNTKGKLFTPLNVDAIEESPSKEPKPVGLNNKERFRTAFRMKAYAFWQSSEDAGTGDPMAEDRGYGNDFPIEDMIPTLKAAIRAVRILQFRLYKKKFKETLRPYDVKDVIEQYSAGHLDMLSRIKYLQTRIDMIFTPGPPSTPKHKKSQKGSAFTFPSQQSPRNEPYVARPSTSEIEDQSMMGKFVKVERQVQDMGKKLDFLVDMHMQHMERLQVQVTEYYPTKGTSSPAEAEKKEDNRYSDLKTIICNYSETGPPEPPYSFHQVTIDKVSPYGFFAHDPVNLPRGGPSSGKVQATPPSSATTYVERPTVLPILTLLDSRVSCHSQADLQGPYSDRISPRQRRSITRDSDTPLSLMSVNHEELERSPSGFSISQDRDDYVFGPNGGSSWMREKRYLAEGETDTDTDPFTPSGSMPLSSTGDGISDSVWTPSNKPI

For `CC1(C)CC1(C#N)COc1ccc2c(Nc3ccc(Cl)nc3)nccc2c1` (stereo unspecified) [US20240101531, Example 330], the concentration giving a half-maximal response (EC50) was less than 1000 nM.
